Among the test systems are A498; COLO 205; DU-145; Hs-578T; KM12; LOX IMVI; M14; MCF7; MDA-MB-435; MDA-N; NCI/ADR-RES; PC-3; RXF 393; SNB-19; SR; T47D; HL-60; IGROV-1; SF-539; SK-MEL-28.
Common to all, as to experiment: DTP human tumour cell line panel, 48 h

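Dose response: 5 concentrations. Exposure: 48 h. Format: 96-well plates. Endpoint: linear interpolation; highest concentration if not reached. GI50 marks 50% less growth.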 Activity calls are given as the source filed them. Cut-off read from the data, not from the text of the source: active = GI50 up to about 1.1 µM and inactive = higher.

`COc1ccccc1NCc1nnc(CCCCCCCCc2nnc(CNc3ccccc3OC)o2)o1`: the GI50 in the assay with A498, in the assay with COLO 205, in the assay with DU-145, with Hs-578T, in the assay on KM12 and in the assay on LOX IMVI was > 100 µM (inactive) in each case. The GI50 in the assay on M14, with MCF7, in the assay with MDA-MB-435, with MDA-N, in the assay on NCI/ADR-RES and in the assay with PC-3 was > 100 µM (inactive) each time. For the same compound, the GI50 in the assay with RXF 393, with SNB-19, in the assay on SR and in the assay on T47D was > 100 µM (inactive) in each case.
As for `O=C1CC2(CCN(Cc3ccccc3)CC2)C(=O)N1N1CCCCC1`, the GI50 with A498, in the assay with COLO 205, in the assay on DU-145, in the assay on HL-60, with Hs-578T and in the assay with IGROV-1 was > 100 µM (inactive) throughout. The GI50 in the assay on KM12, in the assay with LOX IMVI, in the assay with M14, in the assay on MCF7, in the assay with MDA-MB-435 and with MDA-N was > 100 µM (inactive) throughout. The GI50 in the assay on NCI/ADR-RES, in the assay with PC-3, in the assay with RXF 393, in the assay on SF-539, in the assay on SK-MEL-28 and with SNB-19 was > 100 µM (inactive) each time. For the same compound, the GI50 in the assay on T47D is > 100 µM (inactive).
Consider `O=C(c1ccco1)N(C(=O)N1CCN(c2ccccc2)CC1)S(=O)(=O)c1ccccc1`, for which the GI50 in the assay with A498 is 37.5 µM (inactive); in the assay on COLO 205, 28.4 µM (inactive); with DU-145, 43.7 µM (inactive); in the assay with HL-60 it was 21.2 µM (inactive); in the assay with Hs-578T, 32 µM (inactive); with KM12, 37.8 µM (inactive). The GI50 in the assay with M14 was 23 µM (inactive); with MCF7 it was 29.4 µM (inactive); in the assay on MDA-MB-435, 23.3 µM (inactive); with MDA-N it was 22.5 µM (inactive); in the assay on NCI/ADR-RES, 23.2 µM (inactive); in the assay on PC-3, 28.6 µM (inactive). The GI50 with SF-539 was 19.1 µM (inactive); with SK-MEL-28 it was 39.2 µM (inactive); in the assay on SNB-19 it was 27.7 µM (inactive); in the assay with SR, 23.8 µM (inactive); in the assay with T47D, 24.2 µM (inactive).
Regarding `CC(C)(C)C(=O)OCC1CCC[N+]2(C)CCCCC12` (stereo not drawn), the GI50 with A498, in the assay on COLO 205, with DU-145, in the assay on Hs-578T, with IGROV-1 and in the assay with KM12 was > 100 µM (inactive) in each case. Moreover, the GI50 in the assay with LOX IMVI, with M14, in the assay with MCF7, with MDA-MB-435, with MDA-N and in the assay with NCI/ADR-RES was > 100 µM (inactive) each time. The GI50 in the assay on PC-3, with RXF 393, in the assay on SF-539, in the assay with SK-MEL-28, in the assay on SNB-19 and in the assay with SR was > 100 µM (inactive) in each case. Moreover, the GI50 with T47D was > 100 µM (inactive).
Consider `CCC1(CC)CC(=NNS(=O)(=O)c2ccc(C)cc2)C1`, for which the GI50 in the assay with A498, in the assay with COLO 205, in the assay on DU-145, in the assay with HL-60, with Hs-578T and in the assay on IGROV-1 was > 100 µM (inactive) throughout. Also, the GI50 with KM12, in the assay with LOX IMVI, with M14, in the assay on MCF7, in the assay with MDA-MB-435 and in the assay on MDA-N was > 100 µM (inactive) throughout. The GI50 in the assay on NCI/ADR-RES, in the assay on PC-3, with RXF 393, in the assay on SF-539, in the assay with SK-MEL-28 and in the assay with SNB-19 was > 100 µM (inactive) each time. Further, the GI50 in the assay with T47D was > 100 µM (inactive).
As to `COc1cc(C(=O)O)c(-c2cc3c(cc2C=O)OCO3)c(OC)c1OC`, the GI50 in the assay on COLO 205, in the assay on DU-145, with HL-60, with Hs-578T, in the assay with IGROV-1 and with KM12 was > 10 µM (inactive) in each case. Further, the GI50 in the assay on LOX IMVI, in the assay with M14, in the assay with MCF7, with MDA-MB-435, in the assay on MDA-N and with NCI/ADR-RES was > 10 µM (inactive) each time. Besides, the GI50 in the assay with PC-3, in the assay with SF-539, in the assay on SK-MEL-28, with SNB-19, in the assay with SR and in the assay on T47D was > 10 µM (inactive) throughout.
In the case of `COc1cc2c(c(O)c1O)C(=O)C1CCC(=O)N1C2c1cccc2ccccc12` (stereo not drawn), the GI50 in the assay with A498, in the assay with COLO 205, in the assay on DU-145, in the assay on HL-60, with Hs-578T and with IGROV-1 was > 50 µM (inactive) in each case. The GI50 with KM12, with M14, with MCF7, with MDA-MB-435, in the assay with MDA-N and in the assay with NCI/ADR-RES was > 50 µM (inactive) each time. In addition, the GI50 is > 50 µM (inactive) in the assay on PC-3; 6.28 µM (inactive) in the assay on RXF 393; > 50 µM (inactive) in the assay on SF-539; > 50 µM (inactive) in the assay with SK-MEL-28; > 50 µM (inactive) in the assay with SNB-19; > 50 µM (inactive) with SR. Further, the GI50 in the assay with T47D was > 50 µM (inactive).
As for `O=C(O)[C@@H]1NC[C@H]2C(Br)=NO[C@H]21`, the GI50 in the assay with A498, in the assay on COLO 205, in the assay on DU-145, in the assay on HL-60, in the assay on Hs-578T and in the assay with IGROV-1 was > 100 µM (inactive) in each case. For the same compound, the GI50 with KM12 was > 100 µM (inactive); with LOX IMVI it was > 100 µM (inactive); in the assay with M14, > 100 µM (inactive); in the assay with MCF7, 86.9 µM (inactive); in the assay with MDA-MB-435 it was > 100 µM (inactive); in the assay with MDA-N, > 100 µM (inactive). The GI50 was > 100 µM (inactive) with NCI/ADR-RES; > 100 µM (inactive) with PC-3; > 100 µM (inactive) in the assay with RXF 393; > 100 µM (inactive) in the assay with SK-MEL-28; > 100 µM (inactive) in the assay on SNB-19; 23.4 µM (inactive) in the assay with SR. Also, the GI50 in the assay with T47D is > 100 µM (inactive).
As to `CN(C)CCCNc1ccc2nnn3c4ccc(OC(=O)c5ccc([N+](=O)[O-])cc5)cc4c(=O)c1c23`, the GI50 with A498 was 16.6 µM (inactive); in the assay on COLO 205, 5.22 µM (inactive); with DU-145 it was 2.61 µM (inactive); in the assay with Hs-578T, 9.77 µM (inactive); in the assay with IGROV-1, 1.07 µM (active); with KM12, 5.64 µM (inactive). For the same compound, the GI50 in the assay with LOX IMVI was 1.8 µM (inactive); with M14, 13 µM (inactive); with MCF7 it was 2.27 µM (inactive); with MDA-MB-435, 5.7 µM (inactive); in the assay on MDA-N it was 11 µM (inactive); with NCI/ADR-RES, 8.2 µM (inactive). Also, the GI50 with PC-3 was 2.74 µM (inactive); with RXF 393 it was 1.33 µM (inactive); in the assay with SF-539 it was 2.9 µM (inactive); with SK-MEL-28, 13.7 µM (inactive); in the assay with SNB-19 it was 2.95 µM (inactive); in the assay with SR, 0.574 µM (active). In addition, the GI50 in the assay on T47D is 24.2 µM (inactive).
With `Cc1[nH]c(=O)[nH]c(=S)c1C(=O)NC(C)(CO)CO`, the GI50 with A498, in the assay with COLO 205, with DU-145, in the assay on HL-60, with Hs-578T and in the assay with IGROV-1 was > 100 µM (inactive) in each case. The GI50 in the assay on KM12, in the assay on LOX IMVI, in the assay with M14, in the assay on MCF7, in the assay on MDA-MB-435 and with MDA-N was > 100 µM (inactive) each time. The GI50 in the assay on NCI/ADR-RES, in the assay with PC-3, in the assay with RXF 393, in the assay with SF-539, in the assay with SK-MEL-28 and in the assay with SNB-19 was > 100 µM (inactive) each time. Besides, the GI50 in the assay on T47D is > 100 µM (inactive).
Turning to `O=c1c(C(c2ccc3ccccc3c2)c2c(O)oc3ccccc3c2=O)c(O)oc2ccccc12`, the GI50 in the assay on A498 was 36.3 µM (inactive); in the assay on COLO 205, 30.5 µM (inactive); with DU-145 it was 40.7 µM (inactive); with HL-60 it was 34 µM (inactive); in the assay on Hs-578T, 28.6 µM (inactive); in the assay with IGROV-1, 30.8 µM (inactive). In addition, the GI50 was 18.1 µM (inactive) in the assay with KM12; 34.6 µM (inactive) with LOX IMVI; 25.9 µM (inactive) in the assay on M14; 37.1 µM (inactive) with MCF7; 24.9 µM (inactive) in the assay on MDA-MB-435; 27.4 µM (inactive) in the assay with MDA-N. Besides, the GI50 in the assay on NCI/ADR-RES was 17.9 µM (inactive); with PC-3, 34.6 µM (inactive); with RXF 393, 46.7 µM (inactive); in the assay with SF-539, 25.5 µM (inactive); with SK-MEL-28, 28.6 µM (inactive); in the assay on SNB-19, 46.3 µM (inactive). Moreover, the GI50 with T47D was 39.1 µM (inactive).

For the origin of these results see ChEMBL document CHEMBL1201862, “PubChem BioAssay data set” (2004).
